Experimental data: paper PMC6332093, “Development of Radiolabeled Membrane Type-1 Matrix Metalloproteinase Activatable Cell Penetrating Peptide Imaging Probes” (Molecules, 2015)

Target: MT1-MMP (Homo sapiens, UniProt P50281)
Assay: MT1-MMP sensitivity of ACPP probes (LC-MS)
Type: biochemical
Settings: peptide 0.1 mM, MT1-MMP 0.13 µM (method section: 15 nM), 60 min, 37 °C, 50 mM Tris, 200 mM NaCl, 10 mM CaCl2, 10 µM ZnCl2, pH 7.5, LC-MS; cleavage between Asn and Leu
Method: The peptides ACPP-A, ACPP-B, and ACPP-C (without SHPP functionality) were screened for MT1-MMP sensitivity by incubating the peptides (0.1 mM) with MT1-MMP (0.13 µM) for 60 min. For ACPP-A, a small fraction (<5%) of the peptide was cleaved between the asparagine and leucine residue (Figure 3A). […] ACPP-A analogs (a peptide probe lacking the 5-amino-3-oxapentanoic acid linker residues and its linear analog) were also synthesized and tested for MT1-MMP sensitivity, showing also a low degree of activation (Figure S2). Accordingly, a recent study found a poor response of a genetically encoded MT1-MMP biosensor employing the same substrate. […] Therefore, further in-depth analysis of the MT1-MMP specificity and in vivo characteristics of ACPP-A was not performed.
Figure 3 LC-MS characterization of ACPP-A, ACPP-B, and ACPP-C (0.1 mM) incubated with MT1-MMP (0.13 µM) for 60 min. The left and right graphs show the UV absorbance chromatogram and the mass spectra of the UV-peaks bracketed by the arrowheads, respectively. […]
ACPP-A, ACPP-B, and ACPP-C (0.1 mM) were incubated with 15 nM MT1-MMP in a mixture of 50 mM Tris, 200 mM NaCl, 10 mM CaCl2 and 10 µM ZnCl2 at pH 7.5 at 700 rpm and 37 °C. After 1 h, the enzyme was quenched by the addition of TFA (10% v/v), and the reaction mixture was analyzed by LC-MS.

SMILES: CC(=O)N[C@H](Cc1ccc(O)cc1)C(=O)N[C@H](CCC(=O)O)C(=O)N[C@H](CCC(=O)O)C(=O)N[C@H](CCC(=O)O)C(=O)N[C@H](CCC(=O)O)C(=O)N[C@H](CCC(=O)O)C(=O)N[C@H](CCC(=O)O)C(=O)N[C@H](CCC(=O)O)C(=O)N[C@H](CCC(=O)O)C(=O)N[C@H](CCC(=O)O)C(=O)NCCOCC(=O)N[C@H]1CSSC[C@@H](C(=O)N[C@@H](CC(N)=O)C(=O)N[C@@H](CC(C)C)C(=O)N[C@@H](Cc2ccccc2)C(=O)N[C@H](C(=O)N[C@@H](CC(C)C)C(=O)N[C@@H](CCCCN)C(=O)N[C@@H](CC(=O)O)C(=O)NCCOCC(=O)N[C@H](CCCNC(=N)N)C(=O)N[C@H](CCCNC(=N)N)C(=O)N[C@H](CCCNC(=N)N)C(=O)N[C@H](CCCNC(=N)N)C(=O)N[C@H](CCCNC(=N)N)C(=O)N[C@H](CCCNC(=N)N)C(=O)N[C@H](CCCNC(=N)N)C(=O)N[C@H](CCCNC(=N)N)C(=O)N[C@H](CCCNC(=N)N)C(=O)N[C@H](CCNC(=O)CN2CCN(CC(=O)O)CCN(CC(=O)O)CCN(CC(=O)O)CC2)C(N)=O)C(C)C)NC(=O)[C@H](CO)NC(=O)[C@H](CCC(=O)O)NC(=O)[C@H](CCCCN)NC(=O)[C@@H]2CCCN2C1=O [ACPP-A, Ac-y-e9-X-C*PKESC*NLFVLKD-X-r9-dab(DOTA)-NH2]
- fraction of the peptide cleaved by MT1-MMP: < 5%
